Values quoted from earlier work in US3974268A, “Bone-seeking technetium-99m imidodiphosphonate complex” (priority 1975, dated 1976).
Read-outs that look alike come from different tables or passages of the source.

Settings: cited from earlier work
[1] = 2 hours, rabbits, derived from Subramanian et al references

| Compound | 99mTc/85Sr ratio calculated from specific concentrations, Average Bone [1] | 99mTc/85Sr ratio calculated from specific concentrations, Blood [1] | 99mTc/85Sr ratio calculated from specific concentrations, Femur [1] | 99mTc/85Sr ratio calculated from specific concentrations, Kidney [1] | 99mTc/85Sr ratio calculated from specific concentrations, Liver [1] | 99mTc/85Sr ratio calculated from specific concentrations, Marrow [1] | 99mTc/85Sr ratio calculated from specific concentrations, Muscle [1] | 99mTc/85Sr ratio calculated from specific concentrations, Pelvis [1] | 99mTc/85Sr ratio calculated from specific concentrations, Spine [1] | 99mTc/85Sr ratio calculated from specific concentrations, Tibia [1] | 99mTc/85Sr ratio calculated from specific concentrations, Average Bone (rabbit, in vivo) | 99mTc/85Sr ratio calculated from specific concentrations, Blood (rabbit, in vivo) | 99mTc/85Sr ratio calculated from specific concentrations, Femur (rabbit, in vivo) | 99mTc/85Sr ratio calculated from specific concentrations, Kidney (rabbit, in vivo) | 99mTc/85Sr ratio calculated from specific concentrations, Liver (rabbit, in vivo) | 99mTc/85Sr ratio calculated from specific concentrations, Marrow (rabbit, in vivo) | 99mTc/85Sr ratio calculated from specific concentrations, Muscle (rabbit, in vivo) | 99mTc/85Sr ratio calculated from specific concentrations, Pelvis (rabbit, in vivo) | 99mTc/85Sr ratio calculated from specific concentrations, Spine (rabbit, in vivo) | 99mTc/85Sr ratio calculated from specific concentrations, Tibia (rabbit, in vivo) |
| --- | --- | --- | --- | --- | --- | --- | --- | --- | --- | --- | --- | --- | --- | --- | --- | --- | --- | --- | --- | --- |
| O=P(O)(O)CN(CCCCCCN(CP(=O)(O)O)CP(=O)(O)O)CP(=O)(O)O (99mTc complex, metal not drawn) [HMDTMP, Hexamethylene Diamino Tetra (Methylene Phosphonate)] | 0.456 | 0.703 | 0.434 | 7.06 | 0.855 | 0.713 | 0.407 | 0.516 | 0.428 | 0.437 |  |  |  |  |  |  |  |  |  |  |
| O=P(O)(O)OP(=O)(O)O [Pyro Phosphate] |  |  |  |  |  |  |  |  |  |  | 0.812 | 0.703 | 0.710 | 2.81 | 0.779 | 0.726 | 0.365 | 0.918 | 0.827 | 0.694 |
| Poly Phosphate | 0.87 | 1.48 | 0.826 | 9.46 | 2.61 | 2.95 | 0.623 | 1.01 | 0.82 | 0.66 |  |  |  |  |  |  |  |  |  |  |
| Ethylene Hydroxy Diphosphonate [EHDP] | 0.832 | 0.362 | 0.796 | 3.53 | 0.954 | 0.814 | 0.172 | 0.913 | 0.801 | 0.798 |  |  |  |  |  |  |  |  |  |  |
| Amino Ethylne Diphosphonate [AEDP] | 0.648 | 0.416 | 0.641 | 3.71 | 0.766 | 0.852 | 0.135 | 0.693 | 0.618 | 0.641 |  |  |  |  |  |  |  |  |  |  |
